Positions of bridges follow the written chain, without caps; N, C: chain ends. Non-standard residues stand in square brackets, D forms with d. Residues, ends and D or L forms follow the SMILES beside them.
Key:
[1] = tested on: MCP-1 induced human monocyte migration; experiment: Migration of freshly prepared peripheral blood monocytes, MCP-1; assay type: cell-based
Protocol: Agents may also be screened in a chemotactic assay which employs human neutrophils, eosinophils, mast cells, basophils, platelets, lymphocytes or monocytes. For monocytes, 9 mls of fresh blood are transferred to a tube containing 1 ml of 3.8% sodium citrate, and left at room temperature for 15 minutes. Five mls of this anti-coagulated blood are carefully layered over 3.5 ml Polymorphprep® (Nycomed Pharma, Oslo), and centrifuged at 500 g for 35 minutes per the manufacturer's instructions. The top band at the sample/medium interface contains monocytes. The monocytes are carefully removed with a glass pipette, and reconstituted to the original volume (5 ml). The cells are washed with PBS plus 10% fetal calf serum, and centrifuged at 400 g for 10 minutes. The washing step is repeated three times before the cells are counted. Cells are resuspended at 1 × 10^7 cells/ml in RPMI-1640 + 10% fetal calf serum (FCS). The monocytes are cultured for two days at 37°C in a humidified atmosphere of 5% CO2-
On day 2, the cells are counted, spun down, and reconstituted to 1 × 10^7 cells/ml in Gey's balanced salt solution + 1 mg/ml bovine serum albumin (BSA). […]

[2] = tested on: MCP-1 induced calcium flux; experiment: Intracellular calcium flux, MCP-1 as agonist; assay type: cell-based
[3] = tested on: MCP-1- and LPS-induced dermal inflammation; experiment: Dermal inflammation model (intradermal MCP-1 / LPS); assay type: in vivo, rat; conditions: for MCP-1 induced recruitment of monocyte/macrophages in skin (in words): systemic treatment before intradermal MCP-1
Protocol: To assess the efficacy of an agent of the invention in the prevention of lipopolysaccharide (LPS)- and MCP-1-induced dermal inflammation in the rat, three different doses of CRD-Leu4Ile11Cys13peptide 3(3-12)[MCP-1] were administered. An inflammatory response was elicited by intradermal injection (ventral abdomen) of either 500 ng MCP-1 or 100 ng MCP-1 along with endotoxin-free phosphate-buffered saline vehicle (as a negative control) and bacterial lipopolysaccharide (LPS; as a positive control). Each substance was injected at a different site. The results obtained from animals were compared to CRD-Leu4Ile11Cys13 peptide 3(3-12)[MCP-1] treated, and PBS (diluent control) treated, animals. Thirty minutes prior to intradermal agonist administration, the animals received an intravenous loading dose (3, 30 or 300 mg) and a subcutaneous depot dose (0.1, 1 or 10 mg) (on dorsum) of the pan-chemokine inhibitor CRD-Leu4Ile11Cys13peptide 3(3-12)[MCP-1] (see, for example, Figure 12). Animals were sacrificed at 20-24 hours post injection. Serum and urine were collected. The intradermal sites of agonist injection were collected, bisected and the extent of the inflammatory response was assessed by histopathology and quantitative immunofluorescence (fixed and frozen) (for example, following MCP-1 injection, the number of monocyte/macrophages in the skin was determined using the anti-CD14 (MCA342 from Serotec; clone ED2) at 3 µg/ml overnight at 4°C. The second antibody was rat anti-mouse FITC (415-096-100 from Jackson ImmunoResearch) at 28 µg/ml for 6 hours at room temperature). In addition, toxicity of CRD-Leu4Ile11Cys13peptide 3(3-12)[MCP-1] was assessed by collection of the following tissue samples in 10% neutral buffered formalin for histologic analysis: lung, liver, kidney, spleen, thymus, heart, and antagonist (test agent) injection site.
Although MCP-1 is fairly specific as a monocyte/macrophage chemoattractant, dermal injection of LPS induces recruitment of a broader range of leukocytes, including T- and B-cells and neutrophils. Specific antibodies to rat B-cells (MCA 1432 from Serotec) were used at 10 µg/ml overnight at 4°C to determine whether CRD-Leu4Ile11Cys13 peptide 3(3-12)[MCP-1] affected the recruitment of this leukocyte subpopulation. Secondary antibody was anti-mouse FITC (415-096-100 from Jackson ImmunoResearch, as above).
(10 mg in 200 µl subcutaneous). Thirty minutes later, PBS, 50 ng LPS and 500 ng MCP-1 were injected into three separate sites on the ventral abdomen of each rat. Animals were sacrificed 24 hours later and the intradermal site was excised, and frozen in OCT embedding media. Five µm sections were collected from each rat intradermal site and stored at -20°C. The number of monocytes (anti-rat CD14, Serotec), T cells, neutrophils (anti-rat granulocytes, Harlan Seralab), B-lymphocytes (anti-rat B cells, Serotec), and MCP-1, IL-8, and TNF-α (anti-mouse TNF-α, R and D Systems) were measured. Eight test sections and two control sections were stained at each site for each animal through a distance of 2.5 mm. The median percentage area was determined for each animal and for each group using NIH image, as the largest variability of staining was between sections rather than in any one section.

[4] = Stability against acid hydrolysis; assay type: physicochemical; conditions: pH 2.0 for 2 hrs at 37°C
Text: For example, to prepare a peptide 3 derivative, peptide 3(3-12)[MCP-1] was modified according to Jameson et al. (Nature, 368, 744 (1994)), which yielded CRD-Cys13Leu4Ile11peptide 3(3-12)[MCP-1] (Figure 3).

Row | SMILES | % inhibition at 100 µM versus MCP-1 [1] | MCP-1 induced calcium flux (in words) [2] | TNF-α, IL-8 and MCP-1 at the LPS intradermal site (in words) ([3]; 10 mg subcutaneous, 50 ng LPS) | median percentage area stained for neutrophils, monocytes, CD4+ T lymphocytes and B-lymphocytes at the LPS site (in words) ([3]; 10 mg subcutaneous, 50 ng LPS) | recruitment of B-cells to the site of the LPS injection (in words) ([3]; rat, in vivo) | reduction in the number of monocyte/macrophages recruited in response to injected bacterial LPS ([3]; rat, in vivo) [%] | MCP-1 induced recruitment of monocyte/macrophages in skin (in words) [3] | MCP-1 induced recruitment of monocyte/macrophages in skin (in words) ([3]; listed as CRD-Leu4Ile11Cys13peptide 3(3-12)) | degradation by acid hydrolysis [4] [%]
1 | CC[C@H](C)[C@H](NC(=O)[C@H](C)NC(=O)[C@H](CC(=O)O)NC(=O)[C@@H]1CCCN1C(=O)[C@H](CCC(N)=O)NC(=O)[C@H](C)N)C(=O)N[C@@H](CC(N)=O)C(=O)N[C@@H](C)C(=O)N1CCC[C@H]1C(=O)N[C@H](C(=O)N[C@H](C(=O)N[C@@H](CS)C(=O)N[C@@H](CS)C(=O)O)[C@@H](C)O)C(C)C [Peptide 1] (H-AQPDAINAPVTCC-OH; N-terminus and C-terminus assumed) | n.s. | – | – | – | – | – | – | – | –
2 | CC[C@@H](C)[C@H]1NC(=O)[C@@H](CCC(N)=O)NC(=O)[C@H](N)CSSC[C@H](C(N)=O)NC(=O)[C@@H](CC(C)C)NC(=O)[C@@H](CC(=O)O)NC(=O)[C@H]2CCCN2C(=O)[C@@H](CCCCN)NC(=O)[C@@H](CCC(N)=O)NC(=O)[C@@H](CCCCN)NC(=O)[C@@H](Cc2c[nH]c3ccccc23)NC1=O (H-[dC][dQ][dI][dW][dK][dQ][dK][dP][dD][dL][dC]-NH2; disulfide 1-11) | – | did not block | substantially reduced | abolished | substantially inhibited | > 80 | completely abolished | the inflammatory response is abolished | < 10

From EP2386565A2, “Compounds and methods to inhibit or augment an inflammatory response” (Cambridge Enterprise Ltd., priority 1999, dated 2000)
